Reference: article PMC10641817, “Ligand Sulfur Oxidation State Progressively Alters Galectin-3-Ligand Complex Conformations To Induce Affinity-Influencing Hydrogen Bonds” (Journal of Medicinal Chemistry, 2023)
Several values for one entry are separate records, joined by “and”; a condition that tells them apart may be missing. Equal values may be shown once. Values belong to the compound of their own block, whether it stands above or below them.

Key:
[1] = biological target: T1, galectin-3C (the C-terminal domain of galectin-3) (Homo sapiens, UniProt P17931); assay: isothermal titration calorimetry (ITC) with galectin-3C; assay type: binding; details: 301 K
T1 construct: galectin-3C (the C-terminal domain of galectin-3)
Protocol: Stock solutions of the ligands were prepared in a buffer at 5 mM. The ligands were diluted with buffer to concentrations between 2 and 3 mM. […] All thermograms were integrated using NITPIC, the titration curves were fitted using SEDPHAT with error estimates using the automatic confidence interval search with projection method, and all figures were made in GUSSI.

[2] = solubility in attempts at crystallographic structural analyses; assay type: physicochemical; details: for crystallography with galectin-3C
[3] = biological target: galectin-3 R144K (Homo sapiens, UniProt P17931, R144K); assay: competitive fluorescence polarization assay, galectin-3 R144K mutant; assay type: binding
Protocol: (§1) Fluorescence polarization experiments were carried out either with a POLARStar plate reader and FLUOstar Galaxy software or with a PheraStarFS plate reader and PHERAstar Mars version 2.10 R3 software (BMG, Offenburg, Germany). The dissociation constant (Kd) values were determined in PBS as described earlier.[13],[18] Compounds were dissolved in neat DMSO at 20 mM and diluted in PBS to 3–6 different concentrations to be tested in duplicate. Average Kd values and SEMs were calculated from 2 to 8 single-triple point measurements showing between 20 and 80% inhibition.

[4] = biological target: galectin-3 R144S (Homo sapiens, UniProt P17931, R144S); assay: competitive fluorescence polarization assay, galectin-3 R144S mutant; assay type: binding
Protocol: as §1

[5] = biological target: Galectin-3 Wild-Type (Homo sapiens, UniProt P17931); assay: competitive fluorescence polarization assay, galectin-3 wild-type; assay type: binding
Protocol: as §1, with “duplicate.” for “duplicate. Average Kd values and SEMs were calculated from 2 to 8 single-triple point measurements showing between 20 and 80% inhibition.”

Chain of Galectin-3 Wild-Type (P17931 whole entry): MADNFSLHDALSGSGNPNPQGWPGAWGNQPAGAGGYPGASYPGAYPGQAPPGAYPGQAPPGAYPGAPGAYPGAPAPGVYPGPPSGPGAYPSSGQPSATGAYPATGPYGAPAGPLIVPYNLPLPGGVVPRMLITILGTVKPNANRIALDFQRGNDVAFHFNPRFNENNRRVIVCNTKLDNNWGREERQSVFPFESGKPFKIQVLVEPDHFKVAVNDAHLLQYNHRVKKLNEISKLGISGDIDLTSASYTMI
T1 sequence (P17931 118-248 limits assumed): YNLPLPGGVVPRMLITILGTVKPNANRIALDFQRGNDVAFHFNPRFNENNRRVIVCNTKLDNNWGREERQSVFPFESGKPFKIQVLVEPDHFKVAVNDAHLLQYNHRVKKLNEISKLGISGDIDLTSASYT
Chain of galectin-3 R144K (P17931 whole entry R144K): as the sequence (P17931 whole entry) above, with R144K counted along it
Chain of galectin-3 R144S (P17931 whole entry R144S): as the sequence (P17931 whole entry) above, with R144S counted along it

Kd [1]: 94.2 µM and 94 µM
SMILES: [O-][S+](c1ccccc1)c1cn([C@H]2[C@@H](O)[C@@H](CO)O[C@@H](S[C@@H]3O[C@H](CO)[C@@H](O)[C@H](O)[C@H]3O)[C@@H]2O)nn1 (stereo partly drawn) [6b, 3′-Deoxy-3′-[4-phenylsulfinyl-1H-1,2,3-triazol-1-yl] -β-D-galactopyranosyl-1-thio-β-D-glucopyranoside]

solubility [2]: insufficient solubility
SMILES: Cc1ccc(S[C@@H]2O[C@H](CO)[C@H](O)[C@H](n3cc(Sc4ccccc4)nn3)[C@H]2O)cc1 [4a, p-Methylphenyl 3-deoxy-3-[4-phenylsulfane-1H-1,2,3-triazol-1-yl] 1-thio-β-D-galactopyranoside]

Kd [3]: 250 ± 6 µM
solubility [2]: insufficient solubility
Kd [4]: 600 ± 80 µM
SMILES: Cc1ccc(S[C@@H]2O[C@H](CO)[C@H](O)[C@H](n3cc(S(=O)(=O)c4ccccc4)nn3)[C@H]2O)cc1 [4c, p-Methylphenyl 3-deoxy-3-[4-phenylsulfonyl-1H-1,2,3-triazole-1yl] 1-thio-β-D-galactopyranoside]

Kd ([5]; Table 1, galectin-3 wild-type, fluorescence polarization in PBS): > 600 µM
solubility [2]: insufficient solubility
SMILES: Cc1ccc(S[C@@H]2O[C@H](CO)[C@H](O)[C@H](n3cc([S+]([O-])c4ccccc4)nn3)[C@H]2O)cc1 (stereo partly drawn) [4b, p-Methylphenyl 3-deoxy-3-[4-phenylsulfinyl-1H-1,2,3-triazole-1yl] 1-thio-β-D-galactopyranoside]
inhibition at the highest tested concentration ([5]; 2 mM, fluorescence polarization, galectin-3): b Weak inhibition at the highest tested concentration of 4b (2 mM) did not allow for accurate determination of the Kd value.
